Our source for the T/C values is PubChem BioAssay AID256 (DTP/NCI, 2004).

“And” between values parts separate entries of the source, which are not always exact repeats. Equal values may be shown once. Inconclusive results and toxic doses are left out.

The assay relates to CD2F1 mice, L1210 leukemia ip, survival T/C. As to the kind of experiment: NCI In Vivo Anticancer Drug Screen. Data for tumor model L1210 Leukemia (intraperitoneal) in CD2F1 (CDF1) mice. As to conditions: higher = longer survival. The method, boiled down:
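Compound-dosed mice with transplantable tumor versus matched vehicle controls; endpoint ratio T/C reported.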

The mark [1] stands for this setting: endpoint: mean survival time, dose: 50.0 mg/kg/injection, schedule: Q01DX009 (ip), vehicle: saline with Tween-80.
Setting [2] is: endpoint: mean survival time, dose: 100.0 mg/kg/injection, schedule: Q01DX009 (ip), vehicle: saline with Tween-80.
[3] abbreviates: endpoint: mean survival time, dose: 100.0 mg/kg/injection, schedule: Q04DX003 (ip), vehicle: saline with Tween-80.
Setting [4] is: endpoint: mean survival time, dose: 100.0 mg/kg/injection, schedule: Q01DX001 (ip), vehicle: saline with Tween-80.
Where [5] appears, read: endpoint: mean survival time, dose: 200.0 mg/kg/injection, schedule: Q01DX001 (ip), vehicle: saline with Tween-80.
Where [6] appears, read: endpoint: mean survival time, dose: 200.0 mg/kg/injection, schedule: Q01DX009 (ip), vehicle: saline with Tween-80.
The mark [7] stands for this setting: endpoint: mean survival time, dose: 400.0 mg/kg/injection, schedule: Q01DX001 (ip), vehicle: saline with Tween-80.
The mark [8] stands for this setting: endpoint: mean survival time, dose: 25.0 mg/kg/injection, schedule: Q01DX001 (ip), vehicle: saline with Tween-80.
The mark [9] stands for this setting: endpoint: mean survival time, dose: 50.0 mg/kg/injection, schedule: Q01DX001 (ip), vehicle: saline with Tween-80.

On to `C=CS(=O)(=O)CCCC`, for which the T/C reads like this: (endpoint: mean survival time, dose: 100.0 mg/kg/injection, schedule: Q01DX001 (ip), vehicle: Klucel (hydroxypropylcellulose) (HPC)) 96 % of control; (endpoint: mean survival time, dose: 200.0 mg/kg/injection, schedule: Q01DX001 (ip), vehicle: Klucel (hydroxypropylcellulose) (HPC)) 96 % of control; (endpoint: mean survival time, dose: 400.0 mg/kg/injection, schedule: Q01DX001 (ip), vehicle: Klucel (hydroxypropylcellulose) (HPC)) 101 % of control.
In the case of `Cc1nc2n3c(nc(C)c13)=CCC2`, the T/C is 96 % of control (endpoint: mean survival time, dose: 25.0 mg/kg/injection, schedule: Q01DX009 (ip), vehicle: saline with Tween-80); 98 % of control under setting [1]; 93 % of control under setting [2]; 97 % of control under setting [3].
`COc1cccc2c1C(=O)OC2=O`: the T/C was 101 % of control (endpoint: mean survival time, dose: 12.5 mg/kg/injection, schedule: Q01DX005 (ip), vehicle: Klucel (hydroxypropylcellulose) (HPC)); 101 % of control (endpoint: mean survival time, dose: 25.0 mg/kg/injection, schedule: Q01DX005 (ip), vehicle: Klucel (hydroxypropylcellulose) (HPC)); 95 % of control (endpoint: mean survival time, dose: 50.0 mg/kg/injection, schedule: Q01DX005 (ip), vehicle: Klucel (hydroxypropylcellulose) (HPC)); 94 % of control (endpoint: mean survival time, dose: 100.0 mg/kg/injection, schedule: Q01DX005 (ip), vehicle: Klucel (hydroxypropylcellulose) (HPC)); 95 % of control (endpoint: mean survival time, dose: 200.0 mg/kg/injection, schedule: Q01DX005 (ip), vehicle: Klucel (hydroxypropylcellulose) (HPC)).
In the case of `CC(C)CCCC(C)C1CCC2C3CCC4=CC5(CCC4(C)C3CCC12C)SCCS5` (centres undefined), the T/C under setting [4] was 87 % of control and the T/C under setting [5] was 91 % of control.
With `CC(=O)C(C)(C)C`, the T/C is 96 % of control (endpoint: mean survival time, dose: 100.0 mg/kg/injection, schedule: Q04DX002 (ip), vehicle: saline); 104 % of control (endpoint: mean survival time, dose: 200.0 mg/kg/injection, schedule: Q04DX002 (ip), vehicle: saline); 104 % of control (endpoint: mean survival time, dose: 400.0 mg/kg/injection, schedule: Q04DX002 (ip), vehicle: saline).
As for `CCSc1nc(C)cc(Cl)n1`, the T/C reads like this: under setting [1], 102 % of control; under setting [2], 104 % of control; under setting [6], 105 % of control.
As to `CC12CCC3C(CCC(CC(=O)O)C3(C)CC(=O)O)C1CCC2=O` (centres undefined), the T/C under setting [4] was 98 % of control, the T/C under setting [5] is 97 % of control and the T/C under setting [7] is 97 % of control.
`NC1CCCCCCC1O` (centres undefined): the T/C by setting is: (endpoint: mean survival time, dose: 5.0 mg/kg/injection, schedule: Q01DX001 (ip), vehicle: saline sonified) 114 % of control; (endpoint: mean survival time, dose: 10.0 mg/kg/injection, schedule: Q01DX001 (ip), vehicle: saline sonified) 92 % of control; (endpoint: mean survival time, dose: 20.0 mg/kg/injection, schedule: Q01DX001 (ip), vehicle: saline sonified) 100 % of control.
On to `CS(=O)(=O)SC(F)(F)F`, for which, for the setting “endpoint: mean survival time, dose: 5.0 mg/kg/injection, schedule: Q01DX001 (ip), vehicle: saline”, the T/C was 103 % of control.
For `O=P(c1ccccc1)(c1ccccc1)P(=O)(c1ccccc1)c1ccccc1`, the T/C runs as follows: under setting [4], 90 % of control; under setting [5], 90 % of control; under setting [7], 96 % of control.
Regarding `CC1CCC(O)C2(C)CC(O)C(C(C)C(=O)O)CC12` (centres undefined), the T/C was 92 % of control under setting [4], 92 % of control under setting [5] and 88 % of control under setting [7].
Take `NNc1c(F)c(F)c2c(F)c(F)c(F)c(F)c2c1F`: the T/C was 97 % of control under setting [8], 96 % of control under setting [9] and 88 % of control under setting [4].
Turning to `O=[N+]([O-])c1cccc(S(=O)(=O)SC(Cl)(Cl)Cl)c1`, the T/C was 102 % of control (endpoint: mean survival time, dose: 6.25 mg/kg/injection, schedule: Q04DX003 (ip), vehicle: saline); 97 % of control (endpoint: mean survival time, dose: 12.5 mg/kg/injection, schedule: Q04DX003 (ip), vehicle: saline); 102 % of control (endpoint: mean survival time, dose: 25.0 mg/kg/injection, schedule: Q04DX003 (ip), vehicle: saline).
Consider `O=c1oc2ccccc2c2ccccc12`, for which the T/C runs as follows: (endpoint: mean survival time, dose: 100.0 mg/kg/injection, schedule: Q04DX002 (ip), vehicle: saline with Tween-80) 108 % of control; (endpoint: mean survival time, dose: 200.0 mg/kg/injection, schedule: Q04DX002 (ip), vehicle: saline with Tween-80) 101 % of control; (endpoint: mean survival time, dose: 400.0 mg/kg/injection, schedule: Q04DX002 (ip), vehicle: saline with Tween-80) 101 % of control.
As to `O=C(O)c1ccc(CCCBr)cc1`, the T/C (endpoint: mean survival time, dose: 100.0 mg/kg/injection, schedule: Q04DX003 (ip), vehicle: other) was 107 % of control; the T/C (endpoint: mean survival time, dose: 200.0 mg/kg/injection, schedule: Q04DX003 (ip), vehicle: other) is 106 % of control; the T/C (endpoint: mean survival time, dose: 400.0 mg/kg/injection, schedule: Q04DX003 (ip), vehicle: other) was 101 % of control.
`Cc1ccc2c(c1)=N/C(=N\c1nc(O)c(O)[nH]1)N=2`: the T/C under setting [2] is 104 % of control; the T/C under setting [6] is 92 % of control; the T/C (endpoint: mean survival time, dose: 400.0 mg/kg/injection, schedule: Q01DX009 (ip), vehicle: saline with Tween-80) is 104 % of control.
As to `O=C(O)C1OC(Sc2ncnc3nc[nH]c23)C(O)C(O)C1O` (centres undefined), the T/C was 98 % of control (endpoint: median survival time, dose: 25.0 mg/kg/injection, schedule: Q01DX005 (ip), vehicle: saline); 108 % of control (endpoint: median survival time, dose: 50.0 mg/kg/injection, schedule: Q01DX005 (ip), vehicle: saline); 109 % of control (endpoint: median survival time, dose: 100.0 mg/kg/injection, schedule: Q01DX005 (ip), vehicle: saline); 120 % of control and 112 % of control (endpoint: median survival time, dose: 200.0 mg/kg/injection, schedule: Q01DX005 (ip), vehicle: saline); 115 % of control (endpoint: median survival time, dose: 400.0 mg/kg/injection, schedule: Q01DX005 (ip), vehicle: saline).
Turning to `COc1ccc2c3csc4ccccc4c-3nc2c1`, the T/C under setting [3] is 91 % of control.
For `Clc1ccc(N=C(Nc2ccc(Cl)cc2)c2ccccc2)cc1`, the T/C runs as follows: under setting [3], 104 % of control; (endpoint: mean survival time, dose: 200.0 mg/kg/injection, schedule: Q04DX003 (ip), vehicle: saline with Tween-80) 110 % of control; (endpoint: mean survival time, dose: 400.0 mg/kg/injection, schedule: Q04DX003 (ip), vehicle: saline with Tween-80) 98 % of control.
For the molecule `C#CC(OC(=O)NC(CCSC)C(=O)OC)(c1ccccc1)c1ccccc1` (centres undefined), the T/C reads like this: under setting [8], 102 % of control; under setting [9], 94 % of control; under setting [4], 102 % of control.
Regarding `CC[C@@]1(O)C[C@H](OC2CC(N(C)C)C(OC3CC(O)C(OC4CCC(=O)C(C)O4)C(C)O3)C(C)O2)c2c(cc3c(c2O)C(=O)c2c(O)cccc2C3=O)[C@H]1C(=O)OC` (some centres undefined), the T/C is 97 % of control (endpoint: mean survival time, dose: 0.12 mg/kg/injection, schedule: Q01DX009 (ip), vehicle: water); 92 % of control (endpoint: mean survival time, dose: 0.25 mg/kg/injection, schedule: Q01DX009 (ip), vehicle: water); 95 % of control (endpoint: mean survival time, dose: 0.5 mg/kg/injection, schedule: Q01DX009 (ip), vehicle: water); 90 % of control (endpoint: mean survival time, dose: 1.0 mg/kg/injection, schedule: Q01DX009 (ip), vehicle: water); 106 % of control (endpoint: mean survival time, dose: 2.0 mg/kg/injection, schedule: Q01DX009 (ip), vehicle: water); 108 % of control (endpoint: mean survival time, dose: 4.0 mg/kg/injection, schedule: Q01DX009 (ip), vehicle: water). Besides, the T/C reads like this: (endpoint: mean survival time, dose: 8.0 mg/kg/injection, schedule: Q01DX009 (ip), vehicle: water) 86 % of control; (endpoint: mean survival time, dose: 50.0 mg/kg/injection, schedule: Q04DX002 (ip), vehicle: saline with Tween-80) 87 % of control.
Regarding `CS(=O)(=O)Nc1ccc(Nc2c3ccccc3nc3cc([N+](=O)[O-])ccc23)cc1`, the T/C is, setting by setting: (endpoint: mean survival time, dose: 7.0 mg/kg/injection, schedule: Q01DX009 (ip), vehicle: saline) 237 % of control; (endpoint: mean survival time, dose: 10.0 mg/kg/injection, schedule: Q01DX009 (ip), vehicle: saline) 155 % of control; (endpoint: mean survival time, dose: 12.5 mg/kg/injection, schedule: Q01DX001 (ip), vehicle: saline) 175 % of control; (endpoint: mean survival time, dose: 25.0 mg/kg/injection, schedule: Q01DX001 (ip), vehicle: saline) 195 % of control; (endpoint: mean survival time, dose: 50.0 mg/kg/injection, schedule: Q01DX001 (ip), vehicle: saline) 170 % of control; (endpoint: mean survival time, dose: 100.0 mg/kg/injection, schedule: Q01DX001 (ip), vehicle: saline) 116 % of control.
